{"source": "patent US20210214758A1", "about": "“METHODS AND TOOLS FOR DETERMINING CLONAL RELATEDNESS AND PREDICTING CLONAL TRAITS” (priority 2018, published 2021)", "key": {"Klebsiella isolates [1]": {"system": "Klebsiella isolates", "settings": "known; cited from earlier work"}, "Klebsiella isolates [2]": {"system": "Klebsiella isolates", "test": "Antibiotic susceptibility of Klebsiella clinical isolates per 7-SNP clonotype (Lookup Table 1; disk diffusion)", "format": "cell-based, Klebsiella spp.", "protocol": "In further embodiments, the Lookup Table is Lookup Table 1. The information contained in Lookup Table 1 below was obtained from urine specimens from patients with Klebsiella infections from several clinics within different regions of the United States. CT=clonotypes determined using a 7-SNP combination: phoE54; rpoB130; infB279; mdh315; phoE336; phoE354; and mdh429.\nNext, antibiotic resistance was determined for all 387 Klebsiella isolates in the discovery set. Antibiotic testing was carried out according to the standard disk diffusion method as described in the Clinical and Laboratory Standards Institute (M100 Performance Standards for Antimicrobial Susceptibility Testing, 27th Edition, 2017). […] Since almost all Klebsiella isolates are known to be resistant to AMP and sensitive to IMI, TET is not used for treatment of urinary tract infections, and ESBL production is partially reflected in resistance to CTR, these antibiotics were not included for further analysis.\nTo aid in clinical decision-making and to translate clonotype information to treatment selection, Lookup Table 1 was generated. […] The information contained in Lookup Table 1 was obtained from urine specimens from patients with Klebsiella infections from several clinics within different regions of the United States. Indications of allowance or non-recommendation were determined based on a 20% resistance threshold to the indicated antibiotic; i.e., the antibiotic is recommended when more than 80% of the tested isolates within the indicated clonotype were susceptible to the indicated antibiotic, and was cautioned against when less than 80% of the isolates were susceptible to the antibiotic."}}}
{"smiles": "CC1(C)S[C@@H]2[C@H](NC(=O)[C@H](N)c3ccccc3)C(=O)N2[C@H]1C(=O)O", "note": "[AMP, ampicillin]", "values": [{"measurement": "resistance or sensitivity of almost all Klebsiella isolates", "setting": "Klebsiella isolates [1]", "result": "resistant"}, {"measurement": "susceptibility, %", "setting": "Klebsiella isolates [2]; CT 000", "result": 34, "unit": "%"}, {"measurement": "susceptibility, %", "setting": "Klebsiella isolates [2]; CT 001", "result": 0, "unit": "%"}, {"measurement": "susceptibility, %", "setting": "Klebsiella isolates [2]; CT 010", "result": 0, "unit": "%"}, {"measurement": "susceptibility, %", "setting": "Klebsiella isolates [2]; CT 011", "result": 0, "unit": "%"}, {"measurement": "susceptibility, %", "setting": "Klebsiella isolates [2]; CT 031", "result": 0, "unit": "%"}, {"measurement": "susceptibility, %", "setting": "Klebsiella isolates [2]; CT 040", "result": 25, "unit": "%"}, {"measurement": "susceptibility, %", "setting": "Klebsiella isolates [2]; CT 050", "result": 0, "unit": "%"}, {"measurement": "susceptibility, %", "setting": "Klebsiella isolates [2]; CT 051", "result": 0, "unit": "%"}, {"measurement": "susceptibility, %", "setting": "Klebsiella isolates [2]; CT 071", "result": 0, "unit": "%"}, {"measurement": "susceptibility, %", "setting": "Klebsiella isolates [2]; CT 100", "result": 0, "unit": "%"}, {"measurement": "susceptibility, %", "setting": "Klebsiella isolates [2]; CT 110", "result": 0, "unit": "%"}, {"measurement": "susceptibility, %", "setting": "Klebsiella isolates [2]; CT 111", "result": 0, "unit": "%"}, {"measurement": "susceptibility, %", "setting": "Klebsiella isolates [2]; CT 130", "result": 2, "unit": "%"}, {"measurement": "susceptibility, %", "setting": "Klebsiella isolates [2]; CT 131", "result": 0, "unit": "%"}, {"measurement": "susceptibility, %", "setting": "Klebsiella isolates [2]; CT 141", "result": 0, "unit": "%"}, {"measurement": "susceptibility, %", "setting": "Klebsiella isolates [2]; CT 150", "result": 0, "unit": "%"}, {"measurement": "susceptibility, %", "setting": "Klebsiella isolates [2]; CT 151", "result": 2, "unit": "%"}, {"measurement": "susceptibility, %", "setting": "Klebsiella isolates [2]; CT 160", "result": 0, "unit": "%"}, {"measurement": "susceptibility, %", "setting": "Klebsiella isolates [2]; CT 170", "result": 4, "unit": "%"}, {"measurement": "susceptibility, %", "setting": "Klebsiella isolates [2]; CT 171", "result": 0, "unit": "%"}, {"measurement": "susceptibility, %", "setting": "Klebsiella isolates [2]; CT 200", "result": 9, "unit": "%"}, {"measurement": "susceptibility, %", "setting": "Klebsiella isolates [2]; CT 201", "result": 6, "unit": "%"}, {"measurement": "susceptibility, %", "setting": "Klebsiella isolates [2]; CT 210", "result": 0, "unit": "%"}, {"measurement": "susceptibility, %", "setting": "Klebsiella isolates [2]; CT 211", "result": 2, "unit": "%"}, {"measurement": "susceptibility, %", "setting": "Klebsiella isolates [2]; CT 230", "result": 0, "unit": "%"}, {"measurement": "susceptibility, %", "setting": "Klebsiella isolates [2]; CT 231", "result": 0, "unit": "%"}, {"measurement": "susceptibility, %", "setting": "Klebsiella isolates [2]; CT 240", "result": 0, "unit": "%"}, {"measurement": "susceptibility, %", "setting": "Klebsiella isolates [2]; CT 241", "result": 0, "unit": "%"}, {"measurement": "susceptibility, %", "setting": "Klebsiella isolates [2]; CT 250", "result": 0, "unit": "%"}, {"measurement": "susceptibility, %", "setting": "Klebsiella isolates [2]; CT 251", "result": 0, "unit": "%"}, {"measurement": "susceptibility, %", "setting": "Klebsiella isolates [2]; CT 271", "result": 0, "unit": "%"}, {"measurement": "susceptibility, %", "setting": "Klebsiella isolates [2]; CT 300", "result": 0, "unit": "%"}, {"measurement": "susceptibility, %", "setting": "Klebsiella isolates [2]; CT 301", "result": 0, "unit": "%"}, {"measurement": "susceptibility, %", "setting": "Klebsiella isolates [2]; CT 310", "result": 0, "unit": "%"}, {"measurement": "susceptibility, %", "setting": "Klebsiella isolates [2]; CT 311", "result": 0, "unit": "%"}, {"measurement": "susceptibility, %", "setting": "Klebsiella isolates [2]; CT 330", "result": 0, "unit": "%"}, {"measurement": "susceptibility, %", "setting": "Klebsiella isolates [2]; CT 331", "result": 1, "unit": "%"}, {"measurement": "susceptibility, %", "setting": "Klebsiella isolates [2]; CT 350", "result": 0, "unit": "%"}, {"measurement": "susceptibility, %", "setting": "Klebsiella isolates [2]; CT 351", "result": 0, "unit": "%"}, {"measurement": "susceptibility, %", "setting": "Klebsiella isolates [2]; CT 370", "result": 0, "unit": "%"}, {"measurement": "susceptibility, %", "setting": "Klebsiella isolates [2]; CT 371", "result": 0, "unit": "%"}, {"measurement": "susceptibility, %", "setting": "Klebsiella isolates [2]; CT 411", "result": 0, "unit": "%"}, {"measurement": "susceptibility, %", "setting": "Klebsiella isolates [2]; CT 450", "result": 0, "unit": "%"}, {"measurement": "susceptibility, %", "setting": "Klebsiella isolates [2]; CT 451", "result": 0, "unit": "%"}, {"measurement": "susceptibility, %", "setting": "Klebsiella isolates [2]; CT 510", "result": 0, "unit": "%"}, {"measurement": "susceptibility, %", "setting": "Klebsiella isolates [2]; CT 511", "result": 0, "unit": "%"}, {"measurement": "susceptibility, %", "setting": "Klebsiella isolates [2]; CT 530", "result": 0, "unit": "%"}, {"measurement": "susceptibility, %", "setting": "Klebsiella isolates [2]; CT 531", "result": 0, "unit": "%"}, {"measurement": "susceptibility, %", "setting": "Klebsiella isolates [2]; CT 550", "result": 0, "unit": "%"}, {"measurement": "susceptibility, %", "setting": "Klebsiella isolates [2]; CT 551", "result": 0, "unit": "%"}, {"measurement": "susceptibility, %", "setting": "Klebsiella isolates [2]; CT 570", "result": 0, "unit": "%"}, {"measurement": "susceptibility, %", "setting": "Klebsiella isolates [2]; CT 571", "result": 0, "unit": "%"}, {"measurement": "susceptibility, %", "setting": "Klebsiella isolates [2]; CT 611", "result": 0, "unit": "%"}, {"measurement": "susceptibility, %", "setting": "Klebsiella isolates [2]; CT 630", "result": 0, "unit": "%"}, {"measurement": "susceptibility, %", "setting": "Klebsiella isolates [2]; CT 650", "result": 0, "unit": "%"}, {"measurement": "susceptibility, %", "setting": "Klebsiella isolates [2]; CT 651", "result": 4, "unit": "%"}, {"measurement": "susceptibility, %", "setting": "Klebsiella isolates [2]; CT 670", "result": 0, "unit": "%"}, {"measurement": "susceptibility, %", "setting": "Klebsiella isolates [2]; CT 710", "result": 0, "unit": "%"}, {"measurement": "susceptibility, %", "setting": "Klebsiella isolates [2]; CT 730", "result": 0, "unit": "%"}, {"measurement": "susceptibility, %", "setting": "Klebsiella isolates [2]; CT 731", "result": 0, "unit": "%"}, {"measurement": "susceptibility, %", "setting": "Klebsiella isolates [2]; CT 750", "result": 0, "unit": "%"}, {"measurement": "susceptibility, %", "setting": "Klebsiella isolates [2]; CT 751", "result": 17, "unit": "%"}, {"measurement": "susceptibility, %", "setting": "Klebsiella isolates [2]; CT 771", "result": 0, "unit": "%"}, {"measurement": "susceptibility, %", "setting": "Klebsiella isolates [2]; CT Any Klebsiella spp.", "result": 6, "unit": "%"}]}
